Source: patent US4861798A, “Lipoxygenase inhibitory compounds” (Bristol-Myers Company, priority 1987, dated 1989)

Columns and labels:
Human Platelet 12-LPO = target: T1, Human Platelet 12-LPO (Homo sapiens, UniProt P18054); experiment: Inhibition of 12-LPO, human platelet; format: cell-based; settings: @ 100 μM; read-out: % I Human Platelet 12-LPO
T1 construct: Human neutrophils and platelets were obtained from the blood of normal volunteers; endogenous in cells; host or cells: human platelets from blood of normal volunteers
T1 sequence (P18054 1-663): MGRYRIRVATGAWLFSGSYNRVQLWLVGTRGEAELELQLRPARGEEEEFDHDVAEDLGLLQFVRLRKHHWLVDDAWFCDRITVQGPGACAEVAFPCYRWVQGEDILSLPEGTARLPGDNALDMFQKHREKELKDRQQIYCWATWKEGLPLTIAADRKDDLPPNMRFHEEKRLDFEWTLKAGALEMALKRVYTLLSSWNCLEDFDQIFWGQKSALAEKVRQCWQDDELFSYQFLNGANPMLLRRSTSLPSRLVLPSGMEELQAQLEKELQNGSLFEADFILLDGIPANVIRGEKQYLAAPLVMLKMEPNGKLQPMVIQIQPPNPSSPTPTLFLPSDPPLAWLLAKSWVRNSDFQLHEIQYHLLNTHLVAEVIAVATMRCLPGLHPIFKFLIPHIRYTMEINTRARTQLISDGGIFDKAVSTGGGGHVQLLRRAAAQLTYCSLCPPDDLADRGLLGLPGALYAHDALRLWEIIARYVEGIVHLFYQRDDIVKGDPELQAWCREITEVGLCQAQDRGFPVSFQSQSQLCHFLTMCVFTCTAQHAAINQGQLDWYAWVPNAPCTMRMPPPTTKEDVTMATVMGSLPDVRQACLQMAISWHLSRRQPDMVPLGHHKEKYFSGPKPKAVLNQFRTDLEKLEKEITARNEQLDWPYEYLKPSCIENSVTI

[1] = system: cell infiltration (leukocytes); experiment: Carrageenan sponge implantation model, cell infiltration; format: in vivo, rat; settings: for Leukocyte No.: 6 h
Excerpt: (§1) The carrageenan sponge implantation model is primarily used to measure the effect of antiinflammatory agents on cell infiltration. An acute inflammatory response is stimulated by the implantation of a small sponge beneath the skin of rats. The sponge normally contains an inflammatory stimulus such as carrageenan and produces a response which is characterized by infiltration of cells and accumulation of fluid. The number of cells in the exudate can be conveniently measured in the exudate fluid.
(§2) The compound of Example I was evaluated for its local effect on cell migration and mediator production in this model. For comparison, indomethacin and BW755C were also evaluated after local application. Polyester sponges were soaked in solutions of 0.5% carrageenan (in normal saline) which also contained 1% or 5% wt/vol of the test compound. The impregnated sponge was inserted through a small incision on the dorsal surface of a lightly anesthetized rat into a subcutaneous pocket formed by blunt dissection. The incision was then closed. The control treatment consisted of a sponge soaked in 0.5% carrageenan in normal saline. Animals were sacrificed 6 hours after sponge implantation. Sponges are dissected out an placed in heparinized saline. The number of infiltrating cells were determined using a coulter counter. The inflammatory mediators prostaglandin E2, LTB4 and TxB2 in the exudate were determined by radioimmunoassay.

[2] = target: T2, 5-lipoxygenase (Human Leukocyte/PMNL 5-LPO) (Homo sapiens, UniProt P09917); experiment: Inhibition of 5-lipoxygenase (5-HETE formation) in human neutrophil/platelet system; format: cell-based
T2 construct: Human neutrophils and platelets were obtained from the blood of normal volunteers; endogenous in cells; host or cells: human blood leukocytes (neutrophils) of normal volunteers, with 0.1 to 0.5 platelets per leukocyte
T2 sequence (P09917 1-674): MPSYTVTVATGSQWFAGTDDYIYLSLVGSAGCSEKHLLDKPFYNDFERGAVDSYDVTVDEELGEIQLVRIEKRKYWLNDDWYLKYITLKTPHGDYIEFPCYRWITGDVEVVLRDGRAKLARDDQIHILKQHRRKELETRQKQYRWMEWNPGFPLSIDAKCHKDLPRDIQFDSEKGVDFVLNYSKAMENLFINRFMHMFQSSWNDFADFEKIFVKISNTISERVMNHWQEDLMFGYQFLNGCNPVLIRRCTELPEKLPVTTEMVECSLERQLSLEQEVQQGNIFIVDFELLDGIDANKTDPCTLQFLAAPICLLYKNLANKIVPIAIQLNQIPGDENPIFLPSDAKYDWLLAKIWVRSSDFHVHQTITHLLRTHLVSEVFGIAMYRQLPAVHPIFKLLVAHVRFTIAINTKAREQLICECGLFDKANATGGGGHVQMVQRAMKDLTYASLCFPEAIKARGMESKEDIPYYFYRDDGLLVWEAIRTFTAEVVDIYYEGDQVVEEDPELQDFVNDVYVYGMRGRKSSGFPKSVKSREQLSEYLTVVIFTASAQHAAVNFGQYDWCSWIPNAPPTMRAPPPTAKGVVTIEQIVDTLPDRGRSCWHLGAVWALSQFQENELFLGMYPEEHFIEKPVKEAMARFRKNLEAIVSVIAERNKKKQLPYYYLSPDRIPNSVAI
Excerpt: This test is a measure of the inhibition of the synthesis of lipoxygenase products generated by human neutrophils and platelets. The protocol is similar to that described in the article "Comparative Effects of Indomethacin, Acetylenic Acids, 15-HETE, NDGA and BW755C on the Metabolism of Arachidonic Acid in Human Leukocytes and Platelets", H. Solari, P. Braquet and P. Borgeat, Prost. Leuk. Med. 13, pp. 53-60, 1984.
Human neutrophils and platelets were obtained from the blood of normal volunteers. The blood was collected into tubes containing EDTA as an anticoagulant. The blood was centrifuged at 250×g for 15 minutes and the platelet rich plasma was removed. The cell fraction was mixed with an equal volume of 0.9% saline containing 10 mM dextrose and resuspended in Dulbecco's phosphate buffered saline (PBS) without Mg^++ and Ca^++ and was counted. The cell suspension was adjusted to give a leukocyte count of 2-3×10^7 cells/ml.
Test compounds were dissolved in ethanol and added to polypropylene tubes. To control tubes (drug-free) only ethanol was added. The ethanol was evaporated to dryness under a stream of argon and then 0.1 ml of the cell suspension (2-3×10^6 cells) was added. This mixture was pre-incubated for 5 minutes at 37° and then the reaction was initiated by addition of ^3 H-arachidonic acid, calcium ionophore (A23187), and calcium ion. The final concentration of each component was: arachidonic acid, 10 uM; A23187, […]; calcium ion, […]. After 5 minutes the incubations were stopped by addition of an equal volume of methanol. The tubes were spun at 11,000 g for 2 minutes to pellet the precipitated protein. The supernatant was analyzed by HPLC for 5-HETE. The formation of this product is indicative of 5-lipoxygenase activity. Test drugs were evaluated for their ability to inhibit 5-HETE formation. Percent inhibition of varying concentrations of test drugs was determined in duplicate by comparing the peak quantitation in the presence and absence (control) of drug. […] The IC50 values were calculated from log-dose response curves of pooled data from at least two experiments by linear regression analysis.
The activity was tested by the same method as in the previous example.
The enzyme inhibitory activity of these compounds was tested by the same method.

Human Platelet CO = target: T3, Human Platelet CO (Homo sapiens, UniProt P23219); experiment: Inhibition of CO, human platelet; format: cell-based; settings: 95% confidence interval given for some
T3 construct: Human neutrophils and platelets were obtained from the blood of normal volunteers; endogenous in cells; host or cells: human platelets from blood of normal volunteers
T3 sequence (P23219 24-599): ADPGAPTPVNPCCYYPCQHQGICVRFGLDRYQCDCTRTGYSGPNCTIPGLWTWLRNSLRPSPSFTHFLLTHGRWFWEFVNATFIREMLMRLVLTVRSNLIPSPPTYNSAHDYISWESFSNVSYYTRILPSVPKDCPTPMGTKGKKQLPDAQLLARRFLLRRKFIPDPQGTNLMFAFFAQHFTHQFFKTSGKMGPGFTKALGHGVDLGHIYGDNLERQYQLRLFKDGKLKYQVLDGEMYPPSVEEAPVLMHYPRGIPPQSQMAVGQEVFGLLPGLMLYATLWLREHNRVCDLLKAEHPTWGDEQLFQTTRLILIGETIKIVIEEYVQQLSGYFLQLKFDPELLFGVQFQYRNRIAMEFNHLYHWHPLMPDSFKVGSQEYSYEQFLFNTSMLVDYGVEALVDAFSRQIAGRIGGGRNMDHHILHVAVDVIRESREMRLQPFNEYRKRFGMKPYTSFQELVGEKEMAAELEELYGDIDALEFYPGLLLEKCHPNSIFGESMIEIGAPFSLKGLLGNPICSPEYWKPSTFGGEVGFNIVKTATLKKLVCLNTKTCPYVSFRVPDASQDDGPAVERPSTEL

[3] = system: inflammatory mediators prostaglandin E2, LTB4 and TxB2; experiment: Carrageenan sponge implantation model, mediator production in exudate; format: in vivo, rat
Excerpt: as §1, §2

[4] = Experiment 1, 1% compound, control 3.6 ± 1.3
[5] = Experiment 1, 1% compound, control 10.8 ± 3.7
[6] = Experiment 1, 1% compound, control 11.8 ± 4.1

SMILES | inhibition at 100 µM (Human Platelet 12-LPO) [%] | Leukocyte No. ([1]; Experiment 1, 0.5% carrageenan plus 1% compound in sponge, control 10.8 ± 1.5) | Leukocyte No. ([1]; Experiment 2, 0.5% carrageenan plus 5% compound in sponge, control 33.0 ± 3.8) | reduction of cell infiltration ([1]; dosed at 1%) | reduction of cell infiltration ([1]; dosed at 5%) [%] | activity in carrageenan sponge implantation model ([1]; in words) | % Inhibition at 100 μm ([2]; 4-alkoxyphenyl compounds) [%] | IC50 ([2]; FIG. 1 table, 95% confidence interval, read-out: IC50 Human PMNL 5-LPO) [µM] | IC50 (Human Platelet CO) [µM] | TXB2 [3, 4] [ng/ml Exudate] | PGE2 [3, 5] [ng/ml Exudate] | LTB4 [3, 6] [ng/ml Exudate] | LTB4 ([3]; Experiment 2, 5% compound, control 5.5 ± 0.9) [ng/ml Exudate] | TXB2 ([3]; Experiment 2, 5% compound, control 19.2 ± 1.9) [ng/ml Exudate] | PGE2 ([3]; Experiment 2, 5% compound, control 137.6 ± 13.1) [ng/ml Exudate]
O=C(CCCCCCCCc1ccccc1)NO [Compound 1, 9-Phenylnonanohydroxamic Acid] | 33 | 6.9 ± .7 cells/ml (× 10^-6) | < 1 cells/ml (× 10^-6) | 36.1% | 96.1 | found to have activity in this in vivo animal system | 98.3 | 5.7 | 15 | 0.3 ± 0.1 | 5.7 ± 0.9 | 2.1 ± 1.0 | 2.4 ± 0.9 | 4.1 ± 0.9 | 21.3 ± 4.1
COc1ccc2c(c1)c(CC(=O)O)c(C)n2C(=O)c1ccc(Cl)cc1 [Indomethacin, reference compound] | – | – | – | did not significantly reduce cell infiltration | – | – | – | – | – | < 0.5 | 1.9 ± 0.3 | 1.6 ± 0.5 | – | – | –
